Measurements: patent publication US20200123146A1, “HETEROCYCLIC INTEGRIN AGONISTS” (GB006, Inc., priority 2016, published 2020)
pEC50: −log10 of the molar value.

Biological target: T1, integrin CD11b/CD18 (K562 CD11b/CD18 cells) (Homo sapiens, UniProt P05107+P11215)
T1 construct: host or cells: K562 cells stably transfected with wild-type CD11b/CD18
Experiment: K562 cell adhesion assay with immobilized ligands
Assay type: cell-based
Settings: cell-based adhesion assay, K562 cells, 30 min at 37° C.
From the text: Cell Lines. K562 cells (ATCC) stably transfected with wild-type integrin CD11b/CD18 (K562 CD11b/CD18) have been described previously (Park, etal. J Biomol Screen, 2007. 12(3): 406; Gupta, et al., Blood, 2007. 109(8): 3513; incorporated herein by reference in their entirety). Mutant CD11bE320A has been described previously (Alonso, et al. Curr Biol, 2002. 12(10): R340; incorporated herein by reference in its entirety). K562 cells stably transfected with mutant integrin CD11bE320A/CD18 (K562 E320A) were generated according to literature protocols (Park, supra; Gupta, supra). All cell lines were maintained in Iscove's Modified Dulbecco's Medium (IMDM) supplemented with 10% heat-inactivated fetal bovine serum, 50 IU/ml penicillin and streptomycin and 0.5 mg/ml G418.
K562 Cell Adhesion Assay. Cell adhesion assays with immobilized ligands were performed as previously described (Park, supra). Assays with all different K562 cell lines (K562, K562 CD11b/CD18 and K562 E320A) were performed in an identical fashion. Briefly, 384-well Highbind microtiter plates were coated with a 30 μL solution of ligand in Phosphate Buffered Saline, pH 7.4 containing 1 mM each of Ca^2+ and Mg^2+ ions (PBS^++) overnight at 4° C. Ligand Fg was coated at a concentration of 5-15 μg/mL and iC3b at 1-5 μg/mL. Heterodimer specific mAb IB4 was coated at 1-20 μg/mL. Subsequently, the non-specific sites in the wells were blocked by incubation with 1% non-fat milk in Tris Buffered Saline (TBS), pH 7.4, at room temperature for 1 h. Next, the wells were washed three times with TBS. K562 cells were suspended in the assay buffer (TBS containing 1 mM each of Ca^2+ and Mg^2+ ions (TBS^++)) and were transferred to the ligand-coated wells (30,000 cells/well). Stock solutions of the integrin agonists were prepared by dissolving the compounds in DMSO at a concentration of 2-10 mM. Final concentration of DMSO in the assay was approximately 1-2%. K562 cells were incubated in the presence of increasing concentration of integrin agonist for 30 min at 37° C. To dislodge non-adherent cells, the assay plates were gently inverted and kept in the inverted position for 30 min at room temperature. Cells remaining adherent were fixed using formaldehyde and were quantitated using imaging microscopy, as previously described (Park, supra).

| Compound | pEC50 |
| --- | --- |
| CN1C(=O)N(Cc2ccccc2)C(=O)/C1=C/c1ccc(-c2ccc(C(=O)O)cc2)o1 [Compound 2, (Z)-4-(5-((1-Benzyl-3-methyl-2,5-dioxoimidazolidin-4-ylidene)methyl)furan-2-yl)benzoic acid] | < 5.00 |
| O=C(O)c1ccc(-c2ccc(/C=C3\NC(=O)N(Cc4ccccc4)C3=O)o2)cc1 [Compound 3, (Z)-4-(5-((1-Benzyl-2,5-dioxoimidazolidin-4-ylidene)methyl)furan-2-yl)benzoic acid] | < 5.00 |
| CN1C(=S)N(Cc2ccccc2)C(=O)/C1=C/c1ccc(-c2ccc(C(=O)O)cc2)o1 [Compound 5, (Z)-4-(5-((1-Benzyl-3-methyl-5-oxo-2-thioxoimidazolidin-4-ylidene)methyl)furan-2-yl)benzoic acid] | < 5.00 |
| CCOC(=O)c1ccc(-c2ccc(CN3CC(=O)N(Cc4ccccc4)C3=O)o2)cc1 [Compound 6, Ethyl 4-(5-((3-benzyl-2,4-dioxoimidazolidin-1-yl)methyl)furan-2-yl)benzoate] | < 5.00 |
| CCOC(=O)c1ccc(-c2ccc(CN3CC(=S)N(Cc4ccccc4)C3=O)o2)cc1 [Compound 7, Ethyl 4-(5-((3-benzyl-2-oxo-4-thioxoimidazolidin-1-yl)methyl)furan-2-yl)benzoate] | < 5.00 |
| O=C(O)c1ccc(-c2cccc(/C=C3\OC(=S)N(Cc4ccc(F)cc4)C3=O)c2)cc1 [Compound 9, (Z)-3′-((3-(4-Fluorobenzyl)-4-oxo-2-thioxooxazolidin-5-ylidene)methyl)-[1,1′-biphenyl]-4-carboxylic acid] | < 5.00 |
| O=C(O)c1ccc(-c2ccc(CN3CC(=O)N(Cc4ccccc4)C3=O)o2)cc1 [Compound 11, 4-(5-((3-Benzyl-2,4-dioxoimidazolidin-1-yl)methyl)furan-2-yl)benzoic acid] | < 5.00 |
| O=C(O)c1ccc(-c2cccc(/C=C3\SC(=S)N(Cc4ccccc4)C3=O)n2)cc1 [Compound 18, (Z)-4-(6-((3-Benzyl-4-oxo-2-thioxothiazolidin-5-ylidene)methyl)pyridin-2-yl)benzoic acid] | 5.00 to 6.00 |
| O=C(O)c1ccc(-c2nccc(/C=C3\SC(=S)N(Cc4ccccc4)C3=O)n2)cc1 [Compound 19, (Z)-4-(4-((3-Benzyl-4-oxo-2-thioxothiazolidin-5-ylidene)methyl)pyrimidin-2-yl)benzoic acid] | 5.00 to 6.00 |
| O=C(O)c1ccc(-c2cccc(/C=C3\SC(=S)N(Cc4ccc(F)cc4)C3=O)c2)cc1 [Compound 20, (Z)-3′-((3-(4-Fluorobenzyl)-4-oxo-2-thioxothiazolidin-5-ylidene)methyl)-[1,1′-biphenyl]-4-carboxylic acid] | 5.00 to 6.00 |
| O=C(O)c1ccc(-c2ccnc(/C=C3\SC(=S)N(Cc4ccc(F)cc4)C3=O)c2)cc1 [Compound 22, (Z)-4-(2-((3-(4-Fluorobenzyl)-4-oxo-2-thioxothiazolidin-5-ylidene)methyl)pyridin-4-yl)benzoic acid] | 5.00 to 6.00 |
| COC(=O)c1ccc(-c2cccc(/C=C3\SC(=S)N(Cc4ccccc4)C3=O)c2)cc1 [Compound 23, methyl (Z)-3′-((3-benzyl-4-oxo-2-thioxothiazolidin-5-ylidene)methyl)-[1,1′-biphenyl]-4-carboxylate] | < 5.00 |
| COC(=O)c1ccc(-c2cccc(/C=C3\SC(=S)N(Cc4ccccc4)C3=O)n2)cc1 [Compound 24, Methyl (Z)-4-(6-((3-benzyl-4-oxo-2-thioxothiazolidin-5-ylidene)methyl)pyridin-2-yl)benzoate] | < 5.00 |

Other lines, results leading:

| pEC50 | Compound |
| --- | --- |
| 5.00 to 6.00 | O=C(O)c1ccc(-c2ccc(/C=C3\NC(=S)N(Cc4ccccc4)C3=O)o2)cc1 [Compound 4, (Z)-4-(5-((1-Benzyl-5-oxo-2-thioxoimidazolidin-4-ylidene)methyl)furan-2-yl)benzoic acid] |
| 6.00 to 6.60 | COC(=O)c1ccc(-c2ccc(/C=C3\OC(=S)N(Cc4ccc(F)cc4)C3=O)o2)cn1 [Compound 10, methyl (Z)-5-(5-((3-(4-fluorobenzyl)-4-oxo-2-thioxooxazolidin-5-ylidene)methyl)furan-2-yl)picolinate] |
| 6.00 to 6.60 | COC(=O)c1ccc(-c2ccc(/C=C3\SC(=S)N(Cc4ccccc4)C3=O)o2)cn1 [Compound 13, Methyl (Z)-5-(5-((3-benzyl-4-oxo-2-thioxothiazolidin-5-ylidene)methyl)furan-2-yl)picolinate] |
| 6.00 to 6.60 | O=C(O)c1ccc(-c2ccc(/C=C3\SC(=S)N(Cc4ccccc4)C3=O)o2)nc1 [Compound 14, (Z)-6-(5-((3-Benzyl-4-oxo-2-thioxothiazolidin-5-ylidene)methyl)furan-2-yl)nicotinic acid] |
| 6.60 to 7.00 | COC(=O)c1ccc(-c2ccc(/C=C3\SC(=S)N(Cc4ccc(F)cc4)C3=O)o2)cn1 [Compound 16, Methyl (Z)-5-(5-((3-(4-fluorobenzyl)-4-oxo-2-thioxothiazolidin-5-ylidene)methyl)furan-2-yl)picolinate] |
| 5.00 to 6.00 | O=C(O)c1ccc(-c2cccc(/C=C3\SC(=S)N(Cc4ccccc4)C3=O)c2)cc1 [Compound 17, (Z)-3′-((3-Benzyl-4-oxo-2-thioxothiazolidin-5-ylidene)methyl)-[1,1′-biphenyl]-4-carboxylic acid] |
| 6.00 to 6.60 | O=C(O)c1ccc(-c2cccc(/C=C3\SC(=S)N(Cc4ccc(F)cc4)C3=O)n2)cc1 [Compound 21, (Z)-4-(6-((3-(4-Fluorobenzyl)-4-oxo-2-thioxothiazolidin-5-ylidene)methyl)pyridin-2-yl)benzoic acid] |
| 6.60 to 7.00 | O=C(O)c1ccc(-c2ccc(/C=C3\SC(=S)N(Cc4ccccc4)C3=O)s2)cc1 [Compound 25, (Z)-4-(5-((3-Benzyl-4-oxo-2-thioxothiazolidin-5-ylidene)methyl)thiophen-2-yl)benzoic acid] |
| 6.00 to 6.60 | Cc1ccccc1CN1C(=O)/C(=C/c2ccc(-c3ccc(C(=O)O)cc3)o2)SC1=S [Compound 26, (Z)-4-(5-((3-(2-Methylbenzyl)-4-oxo-2-thioxothiazolidin-5-ylidene)methyl)furan-2-yl)benzoic acid] |
| 6.00 to 6.60 | COc1ccccc1CN1C(=O)/C(=C/c2ccc(-c3ccc(C(=O)O)cc3)o2)SC1=S [Compound 27, (Z)-4-(5-((3-(2-Methoxybenzyl)-4-oxo-2-thioxothiazolidin-5-ylidene)methyl)furan-2-yl)benzoic acid] |
| 6.00 to 6.60 | Cc1cccc(CN2C(=O)/C(=C/c3ccc(-c4ccc(C(=O)O)cc4)o3)SC2=S)c1 [Compound 28, (Z)-4-(5-((3-(3-Methylbenzyl)-4-oxo-2-thioxothiazolidin-5-lidene)methyl)furan-2-yl)benzoic acid] |
| 6.00 to 6.60 | COc1cccc(CN2C(=O)/C(=C/c3ccc(-c4ccc(C(=O)O)cc4)o3)SC2=S)c1 [Compound 29, (Z)-4-(5-((3-(3-Methoxybenzyl)-4-oxo-2-thioxothiazolidin-5-ylidene)methyl)furan-2-yl)benzoic acid] |
| 6.60 to 7.00 | O=C(O)c1ccc(-c2ccc(/C=C3\SC(=S)N(Cc4cccc(Cl)c4)C3=O)o2)cc1 [Compound 30, (Z)-4-(5-((3-(3-Chlorobenzyl)-4-oxo-2-thioxothiazolidin-5-ylidene)methyl)furan-2-yl)benzoic acid] |
| 6.00 to 6.60 | Cc1cccc(CN2C(=O)/C(=C/c3ccc(-c4ccc(C(=O)O)cc4)o3)SC2=S)c1C [Compound 31, (Z)-4-(5-((3-(2,3-Dimethylbenzyl)-4-oxo-2-thioxothiazolidin-5-ylidene)methyl)furan-2-yl)benzoic acid] |
| 6.60 to 7.00 | O=C(O)c1ccc(-c2ccc(/C=C3\SC(=S)N(Cc4ccc(F)cc4)C3=O)o2)cc1 [Compound 32, (Z)-4-(5-((3-(4-Fluorobenzyl)-4-oxo-2-thioxothiazolidin-5-ylidene)methyl)furan-2-yl)benzoic acid] |
| 6.60 to 7.00 | COc1ccc(CN2C(=O)/C(=C/c3ccc(-c4ccc(C(=O)O)cc4)o3)SC2=S)cc1 [Compound 34, (Z)-4-(5-((3-(4-Methoxybenzyl)-4-oxo-2-thioxothiazolidin-5-ylidene)methyl)furan-2-yl)benzoic acid] |
| 6.60 to 7.00 | O=C(O)c1ccc(-c2ccc(/C=C3\SC(=S)N(Cc4ccc(Cl)cc4)C3=O)o2)cc1 [Compound 35, (Z)-4-(5-((3-(4-Chlorobenzyl)-4-oxo-2-thioxothiazolidin-5-ylidene)methyl)furan-2-yl)benzoic acid] |
| 6.00 to 6.60 | O=C(O)c1ccc(-c2ccc(/C=C3\SC(=S)N(Cc4ccccc4Cl)C3=O)o2)cc1 [Compound 36, (Z)-4-(5-((3-(2-Chlorobenzyl)-4-oxo-2-thioxothiazolidin-5-ylidene)methyl)furan-2-yl)benzoic acid] |
